Paper PMC12003839 (Communications Biology, 2025)

Biological target: T1, ECHS1 (short-chain enoyl-CoA hydratase) (Homo sapiens, UniProt P30084)
T1 sequence (P30084 28-290): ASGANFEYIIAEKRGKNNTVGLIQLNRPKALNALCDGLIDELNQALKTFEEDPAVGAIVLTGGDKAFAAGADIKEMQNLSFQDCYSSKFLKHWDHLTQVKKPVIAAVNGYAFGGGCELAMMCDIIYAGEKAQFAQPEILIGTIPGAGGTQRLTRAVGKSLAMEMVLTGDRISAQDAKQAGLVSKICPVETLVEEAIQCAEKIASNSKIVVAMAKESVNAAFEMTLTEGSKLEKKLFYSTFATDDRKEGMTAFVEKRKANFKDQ
Test: SPR
Type: binding

| Kd [µM] | Structure (SMILES) |
| --- | --- |
| 2.69 | CC(=O)CC(=O)SCCNC(=O)CCNC(=O)[C@H](O)C(C)(C)COP(=O)(O)OP(=O)(O)OC[C@H]1O[C@@H](n2cnc3c(N)ncnc32)[C@H](O)[C@@H]1OP(=O)(O)O [acetoacetyl-CoA] |
| 0.863 | C/C=C/C(=O)SCCNC(=O)CCNC(=O)[C@H](O)C(C)(C)COP(=O)(O)OP(=O)(O)OC[C@H]1O[C@@H](n2cnc3c(N)ncnc32)[C@H](O)[C@@H]1OP(=O)(O)O [crotonyl-CoA] |
| 2.57 | CCCCCC(=O)SCCNC(=O)CCNC(=O)[C@H](O)C(C)(C)COP(=O)(O)OP(=O)(O)OC[C@H]1O[C@@H](n2cnc3c(N)ncnc32)[C@H](O)[C@@H]1OP(=O)(O)O [hexanoyl-CoA] |
| 2.64 | CCCCCCCC(=O)SCCNC(=O)CCNC(=O)[C@H](O)C(C)(C)COP(=O)(O)OP(=O)(O)OC[C@H]1O[C@@H](n2cnc3c(N)ncnc32)[C@H](O)[C@@H]1OP(=O)(O)O [octanoyl-CoA] |
